Source: US4962224A, “N-naphthoylglycines as aldose reductase inhibitors” (American Home Products Corporation, priority 1989, dated 1990)
Several values for one entry are separate records, joined by “and”; a condition that tells them apart may be missing. Identical values can stand only once.

Tests used:
aldose reductase = target: T1, aldose reductase (Bos taurus, UniProt P16116); experiment: aldose reductase inhibiting effects in vitro (Table I, IN VITRO); assay type: biochemical, bovine (lens); conditions: read-out: % Inhibition IN VITRO; for inhibition at 10 µM: 10^-5 M; for inhibition at 1 µM: 10^-6 M
T1 construct: preparation of the enzyme from bovine lens; from tissue; host or cells: bovine lens
Source text: In the present case the procedure of Hayman and Kinoshita was modified in that the final chromatography step was omitted in the preparation of the enzyme from bovine lens. The results are tabulated in Table I under the heading IN VITRO.

dulcitol accumulation = experiment: lowering of dulcitol (galactitol) accumulation in tissues of galactosemic rats (Table I, IN VIVO); parameters: species or system rat (Sprague-Dawley); conditions: for % Lowering dulcitol accumulation IN VIVO, D: diaphragm; for % Lowering dulcitol accumulation IN VIVO, D / % Lowering dulcitol accumulation IN VIVO, L: galactosemic rats, 4 days; for % Lowering dulcitol accumulation IN VIVO, L: lens
Source text: Such experiments are exemplified hereinbelow after the listing of the following general comments pertaining to these experiments:
(a) Four or more groups of six male rats, […], Sprague-Dawley strain, were used. The first group, the control group, was fed a mixture of laboratory chow (rodent Laboratory Chow, Purina) and […] at 20% (w/w %) concentration. […] The test compound was either admixed to the diet or administered by gavage. In experiments involving compound administration in the diet, the average dose administered was calculated from the actual food intake of the animals in each group. The concentration of galactose in the diet of the treated groups was the same as that for the untreated galactosemic group.
(b) After four days, the animals were killed by decapitation. The eyeballs were removed and punctured with a razor blade; the freed lenses were rolled gently on filter paper and weighed. The sciatic nerves were dissected as completely as possible and weighed. Both tissues when frozen can be kept up to two weeks before being analyzed for galactitol.
Only two minor reagent changes were made: (a) the rinsing mixture was an aqueous 5% (w/v) trichloroacetic acid solution and (b) the stock solution was prepared by dissolving 25 mg of dulcitol in 100 mL of an aqueous trichloroacetic acid solution. [N.B.: For each experiment the average value found in the tissue from rats fed the glucose diet was subtracted from the individual values found in the corresponding tissue in galactose-fed rats to obtain the amount of polyol accumulated.]
The figures under L, N, and D represent the percentage decrease of galactitol accumulation in the tissues of the lens, sciatic nerve, and diaphragm, respectively, for treated rats as compared to untreated rats.

[1] = tested on: Sciatic Nerve Polyol Accumulation; experiment: Two-Week Streptozocin - Diabetic Rat Model, lowering of sciatic nerve polyol accumulation; assay type: in vivo, rat (Sprague-Dawley); conditions: gavage, 14 days, STZ diabetic rats
Source text: A second in vivo model examined the effect of the compounds of the present invention on sorbitol accumulation in the tissues of 14-day streptozocin (STZ) (Upjohn) diabetic rats.
In each of the studies male Sprague-Dawley rats from Charles River Labs, Kingston, N.Y., weighing 200 to 250 g, were used. The animals were weighed and observed for 5 days prior to the start of the study.
In each study the rats were randomly assigned by weight into groups of 15 animals except for group I which contained 8 animals. The groups were treated as follows:
Group II: STZ, 110 mg/kg i.p.
Group IV: STZ, 110 mg/kg i.p. followed by various doses of a compound of the present invention given by gavage for 14 days, beginning on the day of induction of diabetes.
Following an overnight fast (water ad lib) the animals in groups II-IV were given by i.p. injection 110 mg STZ per kg body weight. The STZ was dissolved in cold citric acid, 0.03M, pH 4.5 and injected within 5 minutes of being dissolved. Control rats (group I) were injected with buffer only.
Two days after STZ injection plasma glucose levels (from the tail vein) were determined following a 4 hour fast. Excluded from the study were animals whose plasma glucose was below 300 mg/dl.
On the morning of the 14th day following STZ injection the animals were fasted 4 hours prior to sacrificing by decapitation. The blood was collected into heparin containing tubes and placed on ice. Both lenses and sciatic nerves were removed immediately, weighed, frozen, and stored at -20° C. until analyzed for sorbitol. The RBCs were collected by centrifugation, the plasma was removed and the cells were washed once with 10 volumes of cold saline. The washed packed RBCs were divided into 1 mL aliquots, extracted with cold perchloric acid and the acid extracts were stored at -20° C. until analyzed for sorbitol.

COc1ccc2c(C(=O)N(C)CC(N)=O)c(F)ccc2c1C(F)(F)F [Example 1, N-[(Aminocarbonyl)methyl]-2-fluoro-6-methoxy-N-methyl-5-(trifluoromethyl)-1-naphthalenecarboxamide]
inhibition at 10 µM (aldose reductase): 1%
inhibition at 1 µM (aldose reductase): 0%
results in the sciatic nerve compared with tolrestat (dulcitol accumulation; 10 mg/kg/day versus tolrestat at 9 mg/kg/day, sciatic nerve): comparable results
% Lowering dulcitol accumulation IN VIVO, D (dulcitol accumulation; 5 mg/kg): 32%
% Lowering dulcitol accumulation IN VIVO, D (dulcitol accumulation; 10 mg/kg): 53% and 58%
% Lowering dulcitol accumulation IN VIVO, D (dulcitol accumulation; 12 mg/kg): 52%
% Lowering dulcitol accumulation IN VIVO, D (dulcitol accumulation; 14 mg/kg): 62%
% Lowering dulcitol accumulation IN VIVO, D (dulcitol accumulation; 15 mg/kg): 57%
% Lowering dulcitol accumulation IN VIVO, D (dulcitol accumulation; 19 mg/kg): 63%
% Lowering dulcitol accumulation IN VIVO, D (dulcitol accumulation; 24 mg/kg): 75%
% Lowering dulcitol accumulation IN VIVO, L (dulcitol accumulation; 5 mg/kg): N.S.
% Lowering dulcitol accumulation IN VIVO, L (dulcitol accumulation; 10 mg/kg): N.S.
% Lowering dulcitol accumulation IN VIVO, L (dulcitol accumulation; 12 mg/kg): N.S.
% Lowering dulcitol accumulation IN VIVO, L (dulcitol accumulation; 14 mg/kg): N.S.
% Lowering dulcitol accumulation IN VIVO, L (dulcitol accumulation; 15 mg/kg): N.S.
% Lowering dulcitol accumulation IN VIVO, L (dulcitol accumulation; 19 mg/kg): N.S.
% Lowering dulcitol accumulation IN VIVO, L (dulcitol accumulation; 24 mg/kg): N.S.
% Lowering of Sciatic Nerve Polyol Accumulation, Fructose ([1]; 3 mg/kg): 69%
% Lowering of Sciatic Nerve Polyol Accumulation, Sorbital ([1]; 3 mg/kg): 50%
% Lowering of Sciatic Nerve Polyol Accumulation, Fructose ([1]; 6 mg/kg): 87%
% Lowering of Sciatic Nerve Polyol Accumulation, Sorbital ([1]; 6 mg/kg): 77%
% Lowering of Sciatic Nerve Polyol Accumulation, Fructose ([1]; 9 mg/kg): 94%
% Lowering of Sciatic Nerve Polyol Accumulation, Sorbital ([1]; 9 mg/kg): 79%
% Lowering of Sciatic Nerve Polyol Accumulation, Fructose ([1]; 12 mg/kg): 98%
% Lowering of Sciatic Nerve Polyol Accumulation, Sorbital ([1]; 12 mg/kg): 78%
% Lowering of Sciatic Nerve Polyol Accumulation, Fructose ([1]; 20 mg/kg): 105%
% Lowering of Sciatic Nerve Polyol Accumulation, Sorbital ([1]; 20 mg/kg): 84%

COc1ccc2c(C(=O)N(C)CC(N)=O)c(OCC(F)(F)F)ccc2c1C(F)(F)F [OCH2 CF3 O NH2]
inhibition at 10 µM (aldose reductase): 8%
inhibition at 1 µM (aldose reductase): 1%
% Lowering dulcitol accumulation IN VIVO, D (dulcitol accumulation; 24 mg/kg): N.S.
% Lowering dulcitol accumulation IN VIVO, L (dulcitol accumulation; 24 mg/kg): N.S.

COc1ccc2c(C(=S)N(C)CC(=O)O)cccc2c1C(F)(F)F [tolrestat, N-[[6-methoxy-5-(trifluoromethyl)-1-naphthalenyl]thioxomethyl]-N-methylglycine, reference compound]
% Lowering dulcitol accumulation IN VIVO, L (dulcitol accumulation; 9 mg/kg): N.S.
% Lowering of Sciatic Nerve Polyol Accumulation, Fructose ([1]; 6 mg/kg): 58%
% Lowering of Sciatic Nerve Polyol Accumulation, Sorbital ([1]; 6 mg/kg): 53%
